The values below are quoted from earlier work in US20120004294A1, “ANTITUMOR COMBINATION COMBINING AVE8062 AND DOCETAXEL” (SANOFI, priority 2008, published 2012).

Molecules are shown by their SMILES.

For this data set the following is noted: AVE8062A alone, at too high a dose (weekly doses 4.5-30 mg/m^2 studied).

With `COc1ccc(/C=C\c2cc(OC)c(OC)c(OC)c2)cc1NC(=O)[C@@H](N)CO` [AVE8062A], the Cardiotoxicity result is given as “cardiotoxicity was observed”.
